According to US10407445B2, “Hepatitis C virus inhibitors” (ENANTA PHARMACEUTICALS, INC., priority 2013, dated 2019):
Read-outs that look alike come from different tables or passages of the source.

Legend:
[1] = system: HCV genotype 1a replicon, NS5A Q30K; experiment: Transient replication assay, GT1a NS5A Q30K; assay type: cell-based; conditions: Hepatitis C virus
[2] = system: HCV genotype 1a replicon, NS5A M28V Q30R; experiment: Transient replication assay, GT1a NS5A M28V Q30R; assay type: cell-based; conditions: Hepatitis C virus
[3] = system: HCV GT 1a replicon; experiment: HCV replicon assay, stable GT 1a replicon (Renilla luciferase); assay type: cell-based; conditions: Hepatitis C virus, GT1A
Procedure, shortened: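 Huh-7.5 cells stably carrying a GT1a replicon (H77-based) with Renilla luciferase-Neo reporter, 4000 cells/well, sixteen-point half-log compound series, phenol red-free DMEM without G418. Luciferase read after 72 h relative to DMSO-treated cells gives EC50.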

[4] = system: GT1a replicon encoding NS5A mutation Y93H; experiment: Transient replication assay, GT1a replicon with NS5A mutation Y93H; assay type: cell-based; conditions: Hepatitis C virus
[5] = IV and PO single dose pharmacokinetic studies in SD rats; assay type: in vivo; conditions: Sprague-Dawley, rat, plasma, male SD rats
Protocol: The pharmacokinetics of selected compounds was characterized in male Sprague-Dawley (SD) rats (250-300 g). […] The intravenous (IV) dosing vehicle was 5% ethanol and 95% of 20% 2-hydroxypropyl β-cyclodextrin in water. The oral dosing vehicle was 33% of Microemulsion Preconcentrate #5 (a lipid based self-emulsifying drug delivery system, SEDDS) and 67% of 50 mM citrate buffer (final pH 3.6).
Serial blood samples (approximately 0.3 mL each) were collected from jugular vein or other suitable vein at specified time points. For the IV dosing group, the blood samples were collected predose and at 0.08, 0.25, 0.50, 1, 3, 6, 8, and 24 hours after the start of dosing. For the oral group, the blood samples were collected predose and at 0.08, 0.25, 0.50, 1, 3, 6, 8, and 24 hours after dosing. The blood samples were collected into VACUTAINER™ tubes containing EDTA-K3 as the anti-coagulant and were centrifuged at approximately 4° C. to obtain plasma. The plasma samples were stored at −20° C. until analysis by LC/MS/MS.
A bioanalytical method utilizing high performance liquid chromatography coupled to tandem mass spectrometry (LC/MS/MS) was developed for analysis of the selected compound in rat plasma. Detection was performed using multiple reaction monitoring (MRM); Ions representing the precursor (M+H)^+ species was selected in quadrupole 1 (Q1) and collided with nitrogen gas in the collision cell (Q2) to generate specific product ion, which was subsequently monitored by quadrupole 3 (Q3). Standard curve and quality control samples were prepared in male rat plasma and processed in the same way as the test samples to generate quantitative data.
Pharmacokinetic parameters were generated using non-compartmental pharmacokinetic analysis (Phoenix WinNonlin, version 6.3). Values below the lower limit of quantification (LLOQ) were assigned a value of zero if predose and treated as missing thereafter. Area under the curve (AUC) was calculated using the linear trapezoidal rule. The oral bioavailability (% F) was determined by comparison of the area under the curve (AUC) of the compound in plasma following oral administration to that generated following intravenous administration.

[6] = system: GT1a replicon encoding NS5A mutation L31V; experiment: Transient replication assay, GT1a replicon with NS5A mutation L31V; assay type: cell-based; conditions: Hepatitis C virus

Row | SMILES | EC50 [1] [nM] | EC50 [2] [nM] | EC50 ([3]; HCV GT 1a replicon, 72 h, read-out: EC50 1a) [nM] | EC50 ([4]; read-out: EC50 1a Y93H) [nM] | bioavailability ([5]; oral gavage 20 mg/kg vs IV bolus 2 mg/kg) [%] | EC50 ([6]; read-out: EC50 1a L31V) [nM] | EC50 ([3]; comparative table, GT 1a, read-out: EC50 (nM) 1a) [nM] | EC50 ([4]; read-out: EC50 (nM) 1a Y93H) [nM] | bioavailability ([5]; comparative table, oral 20 mg/kg vs IV) [%] | EC50 ([6]; read-out: EC50 (nM) 1a L31V) [nM]
1 | COC(=O)N[C@H](C(=O)N1C[C@]2(CCCOC2)C[C@H]1c1ncc(-c2ccc(-c3ccc4c(ccc5nc([C@@H]6C[C@@H]7CCC[C@@H]7N6C(=O)[C@@H](NC(=O)OC)C(C)C)[nH]c54)c3)cc2)[nH]1)C(C)C [Compound 16] | 0.05 | 0.16 | 0.009 | 8 | 23.7 | 0.3 |  |  |  | 
2 | COC(=O)N[C@H](C(=O)N1CCC[C@H]1c1nc(-c2ccc(-c3ccc(-c4c[nH]c([C@@H]5CCCN5C(=O)[C@@H](NC(=O)OC)C(C)C)n4)cc3)cc2)c[nH]1)C(C)C [Daclatasvir, reference compound] | 7.9 | 1.2 |  |  |  |  |  |  |  | 
3 | COC(=O)N[C@H](C(=O)N1C[C@]2(CCCOC2)C[C@H]1c1ncc(-c2ccc(-c3ccc4c(ccc5nc([C@@H]6CCCN6C(=O)[C@@H](NC(=O)OC)C(C)C)[nH]c54)c3)cc2)[nH]1)C(C)C [drawing 233] |  |  |  |  |  |  | 0.01 | 8 | 7 | 1
